Measurements reported in patent EP4332093A1, “SALT CONTAINING PIPERAZINE POLYCYCLIC DERIVATIVE, CRYSTAL FORM THEREOF, PREPARATION METHOD THEREFOR, AND USE THEREOF” (Shanghai Hansoh Biomedical Co., Ltd., priority 2021, dated 2022).

Tests used:
dopamine D3 receptor = biological target: T1, dopamine D3 receptor (Homo sapiens, UniProt P35462); test: Radioligand binding assay, dopamine D3 receptor ([3H]-methylspiperone); conditions: Human Dopamine D3 Receptor membrane, [3H]-methylspiperone 0.5 nM
T1 construct: purchased PerkinElmer ES-173-M400UA
Method: Determination of the binding ability of the compounds of the present invention to dopamine D3 receptor
The objective of this test example is to determine the affinity of the compounds for dopamine D3 receptor.
Experimental buffer: 50 mM Tris-HCl pH 7.4, 10 mm MgCl2; washing liquor: 50 mM Tris-HCl pH 7.4, stored at 4°C; 0.5% PEI solution: 0.5 g PEI dissolved in 100 mL ddH2O, 4°C storage of spare.
(§1) 5 µL of the test compounds (0.005 nM to 100 nM, 10 concentrations in total) and 100 µL of buffer were added to a 96-well assay plate. 1 µL of cell membrane and 300 µL of buffer were added to each well, and the plate was shaken at 600 rpm for 5 minutes. 100 µL of a mixed solution of buffer and [^3H]-methylspiperone (final concentration of 0.5 nM) was added to the reaction system per well, and the plate was shaken at 600 rpm for 5 minutes and incubated at 27°C for 30 min. The UNIFII,TER-96 GF/B filter plate pre-incubated with 0.5% PEI for 1 h was washed twice with the buffer (1 mL/well). The cell membrane suspension was added to the […]-96 GF/B filter plate, washed 4 times, and incubated at 55°C for 10 min. 40 µL of ULTIMA GOLD was added to each well, and liquid scintillation counting was carried out.
(§2) The CPM (Counts per minute) values were determined by TopCount. […] The 10 concentrations of the compound were from 100 nM to 0.005 nM after 3-fold dilution of the reaction system. The percent inhibition rate and ten-point concentration data were fitted to the parametric nonlinear logistic equation by using GraphPad prism to calculate the IC50 values of the compound.

D3 receptor = biological target: T2, D3 receptor (Homo sapiens, UniProt P35462); test: cAMP content in cells stably expressing D3 receptors (CHO-D3, forskolin, HTRF); assay type: cell-based
T2 construct: expressed in transfected cells

5-HT2A receptor [1] = biological target: T3, 5-HT2A receptor (Homo sapiens, UniProt P28223); test: Radioligand binding assay, 5-HT2A receptor ([3H]-Ketanserin); set-up: purchased PerkinElmer; conditions: Human 5-HT2A Receptor membrane, [3H]-Ketanserin 2 nM; read-out: 5HT-2A Binding IC50
Method: Determination of the binding ability of the compounds of the
present invention to 5-HT2A receptor
The objective of this test example is to determine the affinity of the compounds for 5-HT2A receptor.
Experimental buffer: 50 mM Tris-HCl pH 7.4, 4 mM CaCl2; washing liquor: 50 mM Tris-HCl pH 7.4, stored at 4°C; 0.5% PEI solution: 0.5 g PEI dissolved in 100 mL ddH2O, 4°C storage of spare.
as §1, with “plate. 1.5” for “plate. 1”, “and [^3H]-Ketanserin” for “and [^3H]-methylspiperone”, “of 2” for “of 0.5”, “The […]-96” for “The UNIFII,TER-96”
as §2

5-HT2A receptor [2] = biological target: T3, 5-HT2A receptor; test: Calcium ion mobility in cells stably expressing 5-HT2A receptors (Flp-In-CHO-5HT2A, FLIPR); assay type: cell-based; set-up: expressed in transfected cells; conditions: Flp-In-CHO-5HT2A stable pool, 5HT stimulation
[3] = Stability study of salt (light, high temperature, high humidity; 5 and 10 days; HPLC related substances); assay type: physicochemical
Text: The chromatographic peak area normalization method was used to calculate the changes of related substances. [table]

[4] = Hygroscopicity study of salt (DVS); assay type: physicochemical; conditions: 25°C, 0-95-0% RH
Text: The hygroscopicity of a drug refers to the characteristics of the drug's ability or degree of water absorption at a certain temperature and humidity. […] (DVS) was used to characterize the ability of drugs to absorb water under different humidity conditions. The instrument parameters are detailed in the table below. [table]

[5] = Solubility of hydrochloride and free base in different media (37°C, 24 hours, HPLC); assay type: physicochemical; conditions: for solubility at 24 h: thermodynamic from solid
Method: The glass bottle was shaken overnight on an electrothermal constant temperature shaking tank, and the temperature was set to 37°C. After 24 hours, the sample solution was filtered with a 0.45 µm mixed water fiber filter membrane, and the subsequent filtrate was taken to test its content by HPLC. HPLC detection methods are described in "Stability Study Conditions". Table 24 Solubility of hydrochloride and free base in different pH buffers

[6] = Salt form quantification (HPLC-ELSD); assay type: physicochemical; conditions: HPLC-ELSD, external standard method
Method: The number of acids binding in the salt form was quantified by HPLC-ELSD test. An appropriate amount of NaCl was weighed, and a series of linear solutions of different concentrations with the diluent acetonitrile-water (50:50) was prepared. […] The above linear solution and hydrochloride samples solution was taken to filter. [table]

[7] = Crystal form stability study of hydrochloride for 30 days; assay type: physicochemical; conditions: HPLC peak area normalization
Method: The diluent 80% methanol solution was added to prepare a solution containing about 0.5 mg/mL hydrochloride. The mixture was sonicated for 30min to produce a clear solution. 1mL of the soluion was filtered and measured by HPLC. See "2.3.4" for the HPLC analysis method. The content of related substances was calculated according to the peak area normalization method, and the results are shown in Table 32 below. Table 32 HPLC data of hydrochloride in stability experimental conditions for 30 days

T3 sequence (P28223 whole entry): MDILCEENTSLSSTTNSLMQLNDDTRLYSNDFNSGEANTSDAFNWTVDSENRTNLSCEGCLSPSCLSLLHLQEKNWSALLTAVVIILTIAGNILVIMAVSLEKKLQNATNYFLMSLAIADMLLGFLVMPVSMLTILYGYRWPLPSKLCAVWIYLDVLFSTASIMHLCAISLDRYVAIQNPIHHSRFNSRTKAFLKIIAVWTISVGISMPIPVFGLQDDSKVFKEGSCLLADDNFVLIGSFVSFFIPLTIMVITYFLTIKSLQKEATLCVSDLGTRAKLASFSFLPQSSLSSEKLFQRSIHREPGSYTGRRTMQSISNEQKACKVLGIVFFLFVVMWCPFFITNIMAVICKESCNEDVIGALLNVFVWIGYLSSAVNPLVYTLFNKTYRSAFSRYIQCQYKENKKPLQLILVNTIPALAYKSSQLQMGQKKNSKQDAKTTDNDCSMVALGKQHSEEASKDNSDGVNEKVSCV
T2 sequence (P35462 whole entry): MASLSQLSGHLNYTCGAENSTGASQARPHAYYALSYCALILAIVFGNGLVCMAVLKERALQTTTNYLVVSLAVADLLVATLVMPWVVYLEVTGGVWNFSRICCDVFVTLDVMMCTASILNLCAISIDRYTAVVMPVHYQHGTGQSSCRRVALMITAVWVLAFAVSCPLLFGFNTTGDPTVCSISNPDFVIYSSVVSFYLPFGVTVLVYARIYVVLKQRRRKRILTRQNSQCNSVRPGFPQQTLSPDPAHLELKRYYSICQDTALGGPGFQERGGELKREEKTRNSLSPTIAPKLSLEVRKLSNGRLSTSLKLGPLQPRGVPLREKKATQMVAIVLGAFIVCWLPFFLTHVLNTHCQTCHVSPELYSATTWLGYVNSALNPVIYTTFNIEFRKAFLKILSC
T1 sequence (P35462 whole entry): as above

Question: For `O=C(N[C@H]1C[C@H](CCN2CCN(c3cccc(Cl)c3Cl)CC2)C1)c1ccon1` [Example 17A, N-(Trans-3-(2-(4-(2,3-dichlorophenyl)piperazin-1-yl)ethyl)cyclobutyl)isoxazole-3-ca rboxamide], which IC50 (dopamine D3 receptor) is on record?
Answer: 0.3 nM

Question: What about the EC50 (D3 receptor) of the same compound?
Answer: 1.1 nM

Question: And the IC50 (5-HT2A receptor [1])?
Answer: 1.92 nM

Question: And the IC50 (5-HT2A receptor [2])?
Answer: 20.8 nM

Question: For `Cc1ncc(C(=O)NC2CC(CCN3CCN(c4cccc(Cl)c4Cl)CC3)C2)o1` (stereo not shown) [Example 16A], which IC50 (dopamine D3 receptor) is on record?
Answer: 0.33 nM

Question: And the EC50 (D3 receptor)?
Answer: 1.7 nM

Question: And the IC50 (5-HT2A receptor [1])?
Answer: 1.8 nM

Question: What about the IC50 (5-HT2A receptor [2]) of the same compound?
Answer: 4.28 nM

Question: What does the source list for `Cl.O=C(N[C@H]1C[C@H](CCN2CCN(c3cccc(Cl)c3Cl)CC2)C1)c1ncco1` [hydrochloride]?
Answer: stability (growth of impurities) [3]: good stability; hygroscopicity (DVS) [4]: slightly hygroscopic; solubility in different pH buffers [5]: pH-dependent, with better solubility under acidic conditions, poor solubility under neutral or alkaline conditions; solubility at 24 h ([5]; aqueous buffer, Buffer pH 3): > 1000 µg/mL; solubility at 24 h ([5]; aqueous buffer, Buffer pH 4): > 1000 µg/mL; solubility at 24 h ([5]; aqueous buffer, Buffer pH 5): 863 µg/mL; solubility at 24 h ([5]; aqueous buffer, Buffer pH 6): 187 µg/mL; solubility at 24 h ([5]; aqueous buffer, Buffer pH 7): 14 µg/mL; solubility at 24 h ([5]; aqueous buffer, Buffer pH 8): 1 µg/mL; solubility at 24 h ([5]; fassgf or other biorelevant, FaSSCoF): > 1000 µg/mL; solubility at 24 h ([5]; fassgf or other biorelevant, FaSSGF): 117 µg/mL; solubility at 24 h ([5]; fassgf or other biorelevant, FeSSCoF): > 1000 µg/mL; solubility at 24 h ([5]; simulated gastric fluid, Buffer pH 1): > 1000 µg/mL; solubility at 24 h ([5]; simulated gastric fluid, Buffer pH 2): > 1000 µg/mL; solubility at 24 h ([5]; FaSSIF): > 1000 µg/mL; solubility at 24 h ([5]; FeSSIF): > 1000 µg/mL; solubility in water compared with free base ([5]; water): greatly improved; solubility at 24 h ([5]; water, H2O): > 1000 µg/mL; Determination of Cl-percentage content in hydrochloride ([6]; Batch 1): 7.82%; Determination of Cl-percentage content in hydrochloride ([6]; Batch 2): 7.90%; Area% at RRT 1.00 ([7]; 0d): 99.44%; Area% at RRT 1.07 ([7]; 0d): 0.07%; Area% at RRT 1.93 ([7]; 0d): 0.42%; Area% at RRT 2.43 ([7]; 0d): 0.07%; Area% at RRT 1.00 ([7]; GS-30d): 99.43%; Area% at RRT 1.07 ([7]; GS-30d): 0.11%; Area% at RRT 1.93 ([7]; GS-30d): 0.39%; Area% at RRT 2.43 ([7]; GS-30d): 0.07%; Area% at RRT 1.00 ([7]; GW-30d): 99.51%; Area% at RRT 1.07 ([7]; GW-30d): 0.08%; Area% at RRT 1.93 ([7]; GW-30d): 0.41%; Area% at RRT 1.00 ([7]; GZ-30d): 99.43%; Area% at RRT 1.07 ([7]; GZ-30d): 0.09%; Area% at RRT 1.93 ([7]; GZ-30d): 0.41%; Area% at RRT 2.43 ([7]; GZ-30d): 0.08%; Area% at RRT 1.00 ([7]; WS-30d): 99.46%; Area% at RRT 1.07 ([7]; WS-30d): 0.09%; Area% at RRT 1.93 ([7]; WS-30d): 0.38%; Area% at RRT 2.43 ([7]; WS-30d): 0.07%

Question: For `Cc1nc(C(=O)N[C@H]2C[C@H](CCN3CCN(c4cccc(Cl)c4Cl)CC3)C2)co1` [Example 18A, N-(Trans-3-(2-(4-(2,3-dichlorophenyl)piperazin-1-yl)ethyl)cyclobutyl)-2-methyloxazole-4-carboxamide], which IC50 (dopamine D3 receptor) is on record?
Answer: 0.42 nM

Question: What about the EC50 (D3 receptor) of the same compound?
Answer: 1.4 nM

Question: What about the IC50 (5-HT2A receptor [1]) of the same compound?
Answer: 1.37 nM

Question: What about the IC50 (5-HT2A receptor [2]) of the same compound?
Answer: 6.44 nM

Question: What does the source list for `Cc1cnoc1C(=O)N[C@H]1C[C@H](CCN2CCN(c3cccc(Cl)c3Cl)CC2)C1` [Example 13A, N-(Trans-3-(2-(4-(2,3-dichlorophenyl)piperazin-1-yl)ethyl)cyclobutyl)-4-methylisox azole-5-carboxamide]?
Answer: IC50 (dopamine D3 receptor): 1.36 nM; EC50 (D3 receptor): 1.1 nM; IC50 (5-HT2A receptor [1]): 1.81 nM; IC50 (5-HT2A receptor [2]): 11.7 nM
